In assay [1] the test system is ACC2. To be noted: ACC2 isolated from rat, mouse, monkey and human; cited from earlier work.
For assay [2], the system named is ACC1. To be noted: ACC1 isolated from rat, mouse, monkey and human; cited from earlier work.
Assay [3] has as its system C. krusei ATCC 6258. Nature of the assay: Anti-Fungal Activity Assay (broth microtiter MIC), C. krusei. Format: cell-based, Candida krusei. To be noted: Pichia kudriavzevii, ATCC6258, 48 h, 3 replicates; MIC recorded at 48 h; read-out: MIC C. krusei ATCC 6258. The procedure, abridged: (§1)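 Candida strains were grown from frozen stock on Sabouraud dextrose agar overnight at 35° C, then suspended directly in RPMI 1640+MOPS and quantified against standard curves. Broth microdilution MIC plates followed CLSI M27-A3; MICs were read visually against growth control at 48 h, with a 24 h read added for soraphen.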

Assay [4] deals with Candida glabrata. Nature of the assay: In vitro antifungal assay (broth microdilution, Micromyx), C. glabrata. It counts as cell-based. The settings on record: Nakaseomyces glabratus, ATCC90030, strain 0635 ATCC 90030, 35° C., approximately 24-48 hr. On the procedure:
(§2) Compounds of the present invention were also assayed in an in vitro antifungal assay against Candida glabrata, Candida tropicalis, and Aspergillus fumigatus, performed by Micromyx, a representative procedure of which follows. The test organisms were reference strains acquired from the American Type Culture Collection (ATCC). Upon receipt, the isolates were streaked onto Sabouraud Dextrose Agar (SDA). Colonies were harvested from these plates and a cell suspension was prepared in Sabouraud Dextrose Broth (Becton Dickinson, Sparks, Md.) containing cryoprotectant. Aliquots were then frozen at −80° C. Prior to the assay, the frozen seeds of all yeast isolates to be tested in that session were thawed and streaked for isolation onto SDA and incubated overnight at 35° C. All fungal isolates were previously streaked on SDA and incubated at 35° C. until spore formation occurred, followed by harvesting of the spores in sterile 0.85% saline and enumeration. The spore preps were stored at 4° C. Yeast and fungal isolates were tested in RPMI medium (Catalog No. SH30011.04; Lot No. AYB60287A; HyClone Labs, Logan, Utah) buffered with 0.165 M MOPS (Catalog No. 475898; Lot No. D00165859; CalBiochem, La Jolla, Calif.). The pH of the medium was adjusted to 7.0 with 1 N NaOH, sterile filtered using a 0.2 μm PES filter, and stored at 4° C. until used. All of the above media was prepared and stored according to guidelines from the Clinical and Laboratory Standards Institute (CLSI; 2-4). The broth microdilution assay method essentially followed the procedure described by CLSI (2-4) and employed automated liquid handlers to conduct serial dilutions and liquid transfers. Automated liquid handlers included the Multidrop 384 (Labsystems, Helsinki, Finland) and Biomek 2000 (Beckman Coulter, Fullerton Calif. The wells in columns 2-12 in standard 96-well microdilution plates (Costar 3795) were filled with 150 μl of the correct diluent. These would become the ‘mother plates’ from which ‘daughter’ or test plates would be prepared. The drugs (300 μL at 40× the desired top concentration in the test plates) were dispensed into the appropriate well in Column 1 of the mother plates. The Biomek 2000 was used to make serial two-fold dilutions through Column 11 in the “mother plate”. The wells of Column 12 contained no drug and were the organism growth control wells. The daughter plates were loaded with 185 μL per well of the appropriate test media using the Multidrop 384. The daughter plates were prepared using the Biomek FX which transferred 5 μL of drug solution from each well of a mother plate to the corresponding well of the correct daughter plate in a single step. A standardized inoculum of each organism was prepared per CLSI methods (2-4). For yeast isolates, colonies were picked from the primary plate and a suspension was prepared to equal a 0.5 McFarland turbidity standard. Suspensions were then diluted 1:100 in RPMI 1640 medium, resulting in a final inoculum concentration of 0.5-2.5×10^3 CFU/mL per test well. […] Standardized inoculum suspensions were transferred to compartments of sterile reservoirs divided by length (Beckman Coulter), and the Biomek 2000 was used to inoculate all plates. Daughter plates were placed on the Biomek 2000 in reverse orientation so that plates were inoculated from low to high drug concentration. The Biomek 2000 delivered 10 μL of standardized inoculum into each well of the appropriate daughter plate for an additional 1:20 dilution. Thus, the wells of the daughter plates ultimately contained 185 μL of the appropriate media, 5 μL of drug solution, and 10 μL of inoculum. The final concentration of DMSO (if used as a solvent) in the test well was 2.5%. Plates were stacked 3 high, covered with a lid on the top plate, placed into plastic bags, and incubated at 35° C. for approximately 24-48 hr for all yeast isolates, and 48 hr for all fungal isolates. Plates were viewed from the bottom using a plate viewer. […]
Background: Broth dilution looks for growth in wells or tubes with falling amounts of substance.

Assay [5] relates to Aspergillus fumigatus. The assay can be described thus: In vitro antifungal assay (broth microdilution, Micromyx), A. fumigatus. To be noted: 48 hr. It counts as cell-based. Here is the method:
as §2

Assay [6] concerns C. albicans ATCC 90028. Nature of the assay: Anti-Fungal Activity Assay (broth microtiter MIC), C. albicans. The settings on record: Candida albicans, ATCC90028, 48 h, 3 replicates; MIC recorded at 48 h; read-out: MIC C. albicans ATCC 90028. It counts as cell-based, Candida albicans. The procedure, abridged: as §1
Assay [7] deals with Candida tropicalis. Nature of the assay: In vitro antifungal assay (broth microdilution, Micromyx), C. tropicalis. Format: cell-based. The settings on record: ATCC90874, strain 0636 ATCC 90874, 35° C., approximately 24-48 hr. Here is the method:
as §2

Assay [8] concerns the target Human ACC2 (Homo sapiens, UniProt O00763). The assay can be described thus: In vitro ACC2 inhibition assay (ADP-Glo), human ACC2. Format: biochemical. The settings on record: 5 nM ACC2, 20 μM ATP, 20 μM acetyl-CoA. A general note: ADP-Glo first removes unused ATP, then detects ADP through luciferase.
Assay [9] relates to C. parapsilosis ATCC 22019. The assay can be described thus: Anti-Fungal Activity Assay (broth microtiter MIC), C. parapsilosis. Format: cell-based, Candida parapsilosis. To be noted: Lodderomyces parapsilosis, ATCC22019, 48 h, 3 replicates; MIC recorded at 48 h; read-out: MIC C. parapsilosis ATCC 22019. The method in brief: as §1
In assay [10] the target is Fungal ACC2 (UniProt Q00955). The settings on record: read-out: Fungal ACC2 (IC50, in vitro ACC2 inhibition).
Where [11] appears, read: strain 5280 ATCC MYA-3626, 35° C., read-out: MIC, A. fumigatus 5280 ATCC MYA-3626.
The mark [12] stands for this setting: strain 6781 ATCC MYA-4609, 35° C., read-out: MIC, A. fumigatus 6781 ATCC MYA-4609.

These results are taken from US20190330224A1, “ACC INHIBITORS AND USES THEREOF” (Gilead Apollo, LLC, priority 2015, published 2019).

The structures appear in SMILES notation. pIC50: −log10 of the molar value. Converted amounts (≈) assume the structure as drawn. Like-named read-outs stand apart in the source and are kept apart here.

By pIC50 is commonly meant the negative decadic logarithm of the IC50, by convention in mol/L. Broadly, the MIC is the lowest concentration found to suppress growth.

Sequence of Human ACC2 (O00763 whole entry): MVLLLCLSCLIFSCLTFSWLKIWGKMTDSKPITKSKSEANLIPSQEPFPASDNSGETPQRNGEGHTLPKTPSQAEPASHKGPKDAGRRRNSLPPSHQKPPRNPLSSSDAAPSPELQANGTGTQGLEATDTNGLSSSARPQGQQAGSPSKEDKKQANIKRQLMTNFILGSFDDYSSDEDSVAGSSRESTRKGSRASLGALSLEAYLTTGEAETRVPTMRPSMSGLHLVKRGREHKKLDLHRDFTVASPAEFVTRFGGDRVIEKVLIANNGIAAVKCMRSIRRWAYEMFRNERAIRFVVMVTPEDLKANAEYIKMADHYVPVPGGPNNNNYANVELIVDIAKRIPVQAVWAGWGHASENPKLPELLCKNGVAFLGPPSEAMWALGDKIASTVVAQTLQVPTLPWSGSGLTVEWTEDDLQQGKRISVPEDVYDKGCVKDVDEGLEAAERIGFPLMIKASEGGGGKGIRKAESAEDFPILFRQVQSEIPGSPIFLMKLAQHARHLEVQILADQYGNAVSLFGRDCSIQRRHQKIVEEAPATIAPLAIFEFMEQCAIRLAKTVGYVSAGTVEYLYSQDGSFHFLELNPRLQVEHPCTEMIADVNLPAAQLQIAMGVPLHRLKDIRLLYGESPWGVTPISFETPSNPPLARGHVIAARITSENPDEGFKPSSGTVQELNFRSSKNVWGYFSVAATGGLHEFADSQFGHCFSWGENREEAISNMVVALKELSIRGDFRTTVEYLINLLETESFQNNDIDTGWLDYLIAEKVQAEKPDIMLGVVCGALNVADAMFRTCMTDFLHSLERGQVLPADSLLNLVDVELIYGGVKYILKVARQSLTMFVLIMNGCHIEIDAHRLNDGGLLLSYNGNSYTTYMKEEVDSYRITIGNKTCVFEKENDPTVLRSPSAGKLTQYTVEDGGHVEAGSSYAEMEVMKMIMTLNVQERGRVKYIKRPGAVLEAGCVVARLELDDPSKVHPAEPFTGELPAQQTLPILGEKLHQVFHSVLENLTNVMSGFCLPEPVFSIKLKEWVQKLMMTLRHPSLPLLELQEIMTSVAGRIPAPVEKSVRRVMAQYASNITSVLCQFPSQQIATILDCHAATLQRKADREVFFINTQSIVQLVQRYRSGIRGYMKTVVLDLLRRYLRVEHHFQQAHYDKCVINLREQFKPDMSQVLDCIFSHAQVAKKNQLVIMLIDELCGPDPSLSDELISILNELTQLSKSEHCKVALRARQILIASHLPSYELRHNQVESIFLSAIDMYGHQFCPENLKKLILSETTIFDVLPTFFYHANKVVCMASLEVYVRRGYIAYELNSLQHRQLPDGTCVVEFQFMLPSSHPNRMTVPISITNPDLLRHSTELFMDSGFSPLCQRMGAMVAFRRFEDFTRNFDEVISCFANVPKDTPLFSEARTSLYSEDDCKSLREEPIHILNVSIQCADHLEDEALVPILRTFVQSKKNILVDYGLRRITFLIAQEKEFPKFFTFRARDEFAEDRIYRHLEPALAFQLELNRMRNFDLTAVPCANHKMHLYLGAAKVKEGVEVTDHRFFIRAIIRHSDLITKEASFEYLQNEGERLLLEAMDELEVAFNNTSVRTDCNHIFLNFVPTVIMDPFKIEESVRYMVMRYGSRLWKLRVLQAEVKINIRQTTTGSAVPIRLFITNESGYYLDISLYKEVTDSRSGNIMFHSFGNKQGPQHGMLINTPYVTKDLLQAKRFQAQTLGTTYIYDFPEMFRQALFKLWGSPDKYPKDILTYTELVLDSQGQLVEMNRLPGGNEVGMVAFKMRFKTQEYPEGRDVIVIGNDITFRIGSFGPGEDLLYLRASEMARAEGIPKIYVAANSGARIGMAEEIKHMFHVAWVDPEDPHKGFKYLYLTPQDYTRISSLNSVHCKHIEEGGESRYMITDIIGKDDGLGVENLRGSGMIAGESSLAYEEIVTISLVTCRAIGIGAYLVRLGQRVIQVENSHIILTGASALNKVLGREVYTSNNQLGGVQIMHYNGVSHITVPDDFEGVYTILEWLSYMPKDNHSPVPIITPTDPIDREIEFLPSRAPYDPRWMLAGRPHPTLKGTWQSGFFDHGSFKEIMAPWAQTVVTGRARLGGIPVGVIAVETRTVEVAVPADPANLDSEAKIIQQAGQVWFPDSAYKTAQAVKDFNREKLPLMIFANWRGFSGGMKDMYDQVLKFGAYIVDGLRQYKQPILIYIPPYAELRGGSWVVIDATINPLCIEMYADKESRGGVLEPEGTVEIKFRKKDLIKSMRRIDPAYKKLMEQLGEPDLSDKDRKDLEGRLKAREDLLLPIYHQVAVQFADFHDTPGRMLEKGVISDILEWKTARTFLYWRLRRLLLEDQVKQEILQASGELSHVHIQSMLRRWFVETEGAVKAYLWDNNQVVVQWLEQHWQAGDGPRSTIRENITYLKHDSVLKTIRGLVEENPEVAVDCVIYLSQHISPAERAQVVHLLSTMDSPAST
Sequence of Fungal ACC2 (Q00955 whole entry): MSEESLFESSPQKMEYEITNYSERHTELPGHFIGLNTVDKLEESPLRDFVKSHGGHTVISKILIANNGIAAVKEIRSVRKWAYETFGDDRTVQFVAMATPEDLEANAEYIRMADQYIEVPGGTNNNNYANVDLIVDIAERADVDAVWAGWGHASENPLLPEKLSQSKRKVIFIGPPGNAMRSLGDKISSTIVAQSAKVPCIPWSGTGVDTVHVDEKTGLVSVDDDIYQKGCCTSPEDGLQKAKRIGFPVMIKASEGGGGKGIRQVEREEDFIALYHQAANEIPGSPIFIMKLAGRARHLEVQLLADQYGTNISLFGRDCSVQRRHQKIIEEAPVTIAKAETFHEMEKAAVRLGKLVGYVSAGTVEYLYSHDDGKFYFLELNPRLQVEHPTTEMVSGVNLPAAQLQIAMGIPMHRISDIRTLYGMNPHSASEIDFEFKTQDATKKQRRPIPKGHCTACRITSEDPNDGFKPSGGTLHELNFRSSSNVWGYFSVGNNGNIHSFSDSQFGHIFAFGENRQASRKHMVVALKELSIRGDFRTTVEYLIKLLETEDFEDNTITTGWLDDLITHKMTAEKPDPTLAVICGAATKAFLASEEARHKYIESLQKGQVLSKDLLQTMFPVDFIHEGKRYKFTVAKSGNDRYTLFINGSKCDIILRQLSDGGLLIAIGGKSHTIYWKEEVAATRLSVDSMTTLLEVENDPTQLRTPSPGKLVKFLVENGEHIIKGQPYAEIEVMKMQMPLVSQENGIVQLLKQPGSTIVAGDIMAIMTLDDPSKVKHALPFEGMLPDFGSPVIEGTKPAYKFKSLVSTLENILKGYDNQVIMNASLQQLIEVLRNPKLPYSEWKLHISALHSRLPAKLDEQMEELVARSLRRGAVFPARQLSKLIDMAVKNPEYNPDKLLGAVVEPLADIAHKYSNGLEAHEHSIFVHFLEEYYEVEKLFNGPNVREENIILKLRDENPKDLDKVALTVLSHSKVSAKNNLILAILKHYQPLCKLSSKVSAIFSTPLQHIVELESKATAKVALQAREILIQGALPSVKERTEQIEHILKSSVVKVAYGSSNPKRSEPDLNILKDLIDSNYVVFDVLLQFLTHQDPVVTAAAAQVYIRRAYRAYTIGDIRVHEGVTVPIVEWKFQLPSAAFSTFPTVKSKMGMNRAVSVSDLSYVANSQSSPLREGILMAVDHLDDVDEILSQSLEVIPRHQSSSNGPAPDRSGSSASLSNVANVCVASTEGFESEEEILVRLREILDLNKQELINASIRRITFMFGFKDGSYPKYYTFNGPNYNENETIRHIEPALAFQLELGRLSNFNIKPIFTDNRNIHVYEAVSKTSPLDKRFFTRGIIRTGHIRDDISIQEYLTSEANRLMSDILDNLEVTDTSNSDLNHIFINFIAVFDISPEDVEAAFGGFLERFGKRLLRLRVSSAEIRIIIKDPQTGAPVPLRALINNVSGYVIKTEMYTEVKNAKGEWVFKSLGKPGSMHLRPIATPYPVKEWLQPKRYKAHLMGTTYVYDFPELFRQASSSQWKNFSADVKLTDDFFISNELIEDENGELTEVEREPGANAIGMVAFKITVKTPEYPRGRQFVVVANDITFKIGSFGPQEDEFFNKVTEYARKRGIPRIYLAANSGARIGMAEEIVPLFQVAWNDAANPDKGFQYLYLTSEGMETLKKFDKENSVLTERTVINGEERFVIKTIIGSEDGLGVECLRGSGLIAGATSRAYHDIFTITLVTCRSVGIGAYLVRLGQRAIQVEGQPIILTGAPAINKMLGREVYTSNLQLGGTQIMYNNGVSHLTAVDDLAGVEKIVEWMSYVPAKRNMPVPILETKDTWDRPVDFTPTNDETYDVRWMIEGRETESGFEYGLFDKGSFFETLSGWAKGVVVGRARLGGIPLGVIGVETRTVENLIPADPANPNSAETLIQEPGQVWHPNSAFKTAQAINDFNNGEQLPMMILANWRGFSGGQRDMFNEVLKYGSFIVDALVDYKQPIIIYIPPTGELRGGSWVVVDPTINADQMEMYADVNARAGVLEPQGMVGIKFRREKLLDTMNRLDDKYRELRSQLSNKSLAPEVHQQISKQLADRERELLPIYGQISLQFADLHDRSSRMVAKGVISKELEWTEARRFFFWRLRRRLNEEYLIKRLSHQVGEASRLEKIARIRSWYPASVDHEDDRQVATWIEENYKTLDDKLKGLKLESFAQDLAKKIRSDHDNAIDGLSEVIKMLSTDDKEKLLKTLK

With `O=C(c1c2ccccc2cc2ccccc12)N1CCC(N2CCC[C@@H](C(=O)N3CCOCC3)C2)CC1` [CP-640186], the negative-log IC50 (pIC50) in [1] and in assay [2] was roughly 7.22 throughout.
With `COc1ccc(F)cc1[C@H](Cn1c(=O)n([C@@H]2CCNC2=O)c(=O)c2c(C)c(-n3nccn3)sc21)OC1CCOCC1` [Compound I-34, 1-((R)-2-(5-fluoro-2-methoxyphenyl)-2-((tetrahydro-2H-pyran-4-yl)oxy)ethyl)-5-methyl-3-((R)-2-oxopyrrolidin-3-yl)-6-(2H-1,2,3-triazol-2-yl)thieno[2,3-d]pyrimidine-2,4(1H,3H)-dione], the MIC in assay [3] is 0.25 to 1 µg/mL (≈ 0.428 to 1.71 µM); in assay [4], greater than 4.1 µg/mL; in assay [5] (setting [11]), 1.1 to 2 µg/mL (≈ 1.88 to 3.42 µM); in assay [5] (setting [12]), 1.1 to 2 µg/mL (≈ 1.88 to 3.42 µM); in assay [6], 0.25 to 1 µg/mL (≈ 0.428 to 1.71 µM); in assay [7], 0.25 to 1 µg/mL (≈ 0.428 to 1.71 µM). In [9], the minimum inhibitory concentration (MIC) was in the range of 0.25 to 1 µg/mL (≈ 0.428 to 1.71 µM). Also, the negative logarithm of the IC50 (pIC50) in [8] was 8.00 to 8.70.
Regarding `COc1ccc(F)cc1[C@H](Cn1c(=O)n([C@@H]2CCN(C)C2=O)c(=O)c2c(C)c(-n3nccn3)sc21)OC1CCOCC1` [Compound I-36, 1-((R)-2-(5-fluoro-2-methoxyphenyl)-2-((tetrahydro-2H-pyran-4-yl)oxy)ethyl)-5-methyl-3-((R)-1-methyl-2-oxopyrrolidin-3-yl)-6-(2H-1,2,3-triazol-2-yl)thieno[2,3-d]pyrimidine-2,4(1H,3H)-dione], the MIC in [3] is 0.25 to 1 µg/mL (≈ 0.418 to 1.67 µM); in [4], greater than 4.1 µg/mL; in assay [5] (setting [11]) it was 0.25 to 1 µg/mL (≈ 0.418 to 1.67 µM); in [5] (setting [12]), 0.25 to 1 µg/mL (≈ 0.418 to 1.67 µM); in assay [6], 0.25 to 1 µg/mL (≈ 0.418 to 1.67 µM); in assay [7] it was 0.25 to 1 µg/mL (≈ 0.418 to 1.67 µM). In assay [9], the minimum inhibitory concentration (MIC) is 0.25 to 1 µg/mL (≈ 0.418 to 1.67 µM). Moreover, the pIC50 in assay [8] and in assay [10] was 8.00 to 8.70 throughout.
For `COc1ccc(F)cc1[C@H](Cn1c(=O)n([C@H]2CCCNC2=O)c(=O)c2c(C)c(-n3nccn3)sc21)OC1CCOCC1` [Compound I-37, 1-((R)-2-(5-fluoro-2-methoxyphenyl)-2-((tetrahydro-2H-pyran-4-yl)oxy)ethyl)-5-methyl-3-((S)-2-oxopiperidin-3-yl)-6-(2H-1,2,3-triazol-2-yl)thieno[2,3-d]pyrimidine-2,4(1H,3H)-dione], the MIC in assay [3] was 0.25 to 1 µg/mL (≈ 0.418 to 1.67 µM); in assay [4] it was greater than 4.1 µg/mL; in assay [5] (setting [11]), 1.1 to 2 µg/mL (≈ 1.84 to 3.34 µM); in assay [5] (setting [12]), 1.1 to 2 µg/mL (≈ 1.84 to 3.34 µM); in assay [6], 0.25 to 1 µg/mL (≈ 0.418 to 1.67 µM); in [7], 0.25 to 1 µg/mL (≈ 0.418 to 1.67 µM). The MIC in assay [9] fell in the range of 0.25 to 1 µg/mL (≈ 0.418 to 1.67 µM). Besides, the negative logarithm of the IC50 (pIC50) in [8] was 8.00 to 8.70.
`COc1ccc(F)cc1[C@H](Cn1c(=O)n([C@H]2CCCN(C)C2=O)c(=O)c2c(C)c(-n3nccn3)sc21)OC1CCOCC1` [Compound I-39, 1-((R)-2-(5-fluoro-2-methoxyphenyl)-2-((tetrahydro-2H-pyran-4-yl)oxy)ethyl)-5-methyl-3-((S)-1-methyl-2-oxopiperidin-3-yl)-6-(2H-1,2,3-triazol-2-yl)thieno[2,3-d]pyrimidine-2,4(1H,3H)-dione]: the minimal inhibitory concentration (MIC) was 0.25 to 1 µg/mL (≈ 0.408 to 1.63 µM) in assay [3]; greater than 4.1 µg/mL in [4]; 1.1 to 2 µg/mL (≈ 1.8 to 3.26 µM) in assay [5] (setting [11]); 1.1 to 2 µg/mL (≈ 1.8 to 3.26 µM) in assay [5] (setting [12]); 0.25 to 1 µg/mL (≈ 0.408 to 1.63 µM) in [6]; 0.25 to 1 µg/mL (≈ 0.408 to 1.63 µM) in assay [7]. The minimum inhibitory concentration (MIC) in assay [9] lay within 0.25 to 1 µg/mL (≈ 0.408 to 1.63 µM). For the same compound, the results for the pIC50 in assay [8] and in [10] were 8.00 to 8.70 and 8.70 to 9.15, respectively.
